Source: US11608341B2, “Substituted tetrahydropyrazolo[3,4-d]pyrimidines and tetrahydropyrazolo[4,3-d]pyrimidines as C5A receptor modulators” (Idorsia Pharmaceuticals Ltd., priority 2018, dated 2023)

Molecular target: T1, C5AR1 (Homo sapiens, UniProt P21730)
T1 construct: host or cells: CHO-K1
T1 sequence (P21730 1-350): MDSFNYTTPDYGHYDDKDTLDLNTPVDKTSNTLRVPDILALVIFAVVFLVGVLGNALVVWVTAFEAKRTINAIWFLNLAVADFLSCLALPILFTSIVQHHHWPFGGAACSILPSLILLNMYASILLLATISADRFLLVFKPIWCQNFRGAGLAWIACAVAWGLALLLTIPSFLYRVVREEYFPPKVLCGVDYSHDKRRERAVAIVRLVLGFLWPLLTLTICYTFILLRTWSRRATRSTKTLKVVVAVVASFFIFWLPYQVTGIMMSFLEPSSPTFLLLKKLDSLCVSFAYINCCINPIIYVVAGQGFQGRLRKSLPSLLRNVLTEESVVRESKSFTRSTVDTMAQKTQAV
Assay: In vitro assay: antagonism of C5a-induced beta-arrestin recruitment (PathHunter) in CHO-K1 C5AR1 beta-arrestin cell line
Assay type: cell-based
Settings: antagonistic activity, 1-10 nM C5a agonist, geometric mean where several measurements, read-out: C5aR IC50
Summary of the method: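 Antagonist or DMSO added first, then C5a (1-10 nM, added at 6-fold end concentration), 1.5 h at 37 °C. PathHunter detection reagent was added for 45 min at RT before plate reading. IC50s come from antagonist serial dilutions in nmol/l and are geometric means of several measurements.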

SMILES | IC50 [nM]
CC1c2cn(C3CCCCO3)nc2N(Cc2ccccc2C2CC2)C(=O)N1C1CCN(c2c(F)cccc2Cl)CC1 (stereo not shown) [Example 365] | 45
Cc1cccc(F)c1N1CCC(N2Cc3nn(C)cc3N(C(C)c3ccccc3C(F)(F)F)C2=O)CC1 (single isomer, unassigned) [Example 261] | 580
Cc1cccc(F)c1N1CCC(N2Cc3cn(CCN(C)C(C)C)nc3N(Cc3ccccc3C(F)(F)F)C2=O)CC1 [Example 72] | 43
Cc1cccc(F)c1N1CCC(N2Cc3c(cnn3CC(C)(C)F)N(Cc3ccccc3C(F)(F)F)C2=O)CC1 [Example 177] | 48
COc1nccc(C(F)F)c1N1CCC(N2C(=O)N(Cc3ccccc3C3CC3)c3nn(C)cc3C2C)CC1 (single isomer, unassigned) [Example 367] | 286
COc1nccc(C)c1N1CCC(N2C(=O)N(Cc3ccccc3C(F)(F)F)c3cn(C4CC4)nc3C2C)CC1 (single isomer, unassigned) [Example 297] | 326
COc1nccc(C)c1N1CCC(N2Cc3c[nH]nc3N(Cc3ccccc3C(F)(F)F)C2=O)CC1 [Example 197] | 17
Cc1cccc(F)c1N1CCC(N2Cc3cn(CCN4CCCCC4)nc3N(Cc3ccccc3C(F)(F)F)C2=O)CC1 [Example 63] | 91
Cc1cccc(F)c1N1CCC(N2Cc3cn(C(C)CN)nc3N(Cc3ccccc3C(F)(F)F)C2=O)CC1 (stereo not shown) [Example 79] | 676
Cn1cc2c(n1)CN(C1CCN(c3c(F)cccc3C3CC3)CC1)C(=O)N2Cc1ccccc1C(F)(F)F [Example 304] | 35
Cc1ccnc(C#N)c1N1CCC(N2Cc3cn(C)nc3N(Cc3ccccc3C(F)(F)F)C2=O)CC1 [Example 85] | 34
Cc1cccc(F)c1N1CCC(N2Cc3nn(C)cc3N(Cc3ccccc3C(C)C)C2=O)CC1 [Example 260] | 40
Cc1cccc(F)c1N1CCC(N2C(=O)N(Cc3ccccc3C3CC3)c3cn(CC(C)(F)F)nc3C2C)CC1 (single isomer, unassigned) [Example 276] | 491
Cc1cccc(F)c1N1CCC(N2Cc3c(cnn3CC3(C)CC3)N(Cc3ccccc3C(F)(F)F)C2=O)CC1 [Example 181] | 50
C#CC(C)(C)n1cc2c(n1)N(Cc1ccccc1C(F)(F)F)C(=O)N(C1CCN(c3c(C)cccc3F)CC1)C2 [Example 160] | 147
Cc1cccc(F)c1N1CCC(N2C(=O)N(Cc3ccccc3C3CC3)c3nn(C4CC4)cc3C2C)CC1 (single isomer, unassigned) [Example 340] | 67
Cc1cccc(F)c1N1CCC(N2Cc3cn(CCN4CCCC4)nc3N(Cc3ccccc3C(F)(F)F)C2=O)CC1 [Example 62] | 105
Cc1cccc(F)c1N1CCC(N2Cc3cn(C4CN(S(=O)(=O)N(C)C)C4)nc3N(Cc3ccccc3C(F)(F)F)C2=O)CC1 [Example 137] | 81
Cc1cccc(F)c1N1CCC(N2Cc3cn(C(C)(NC(=O)OC(C)(C)C)C(F)(F)F)nc3N(Cc3ccccc3C(F)(F)F)C2=O)CC1 (stereo not shown) [Example 83] | 75
COc1nccc(C(F)F)c1N1CCC(N2C(=O)N(Cc3ccccc3C3CC3)c3nn(C4CC4)cc3C2C)CC1 (single isomer, unassigned) [Example 382] | 21

SMILES | IC50 [nM]
Cc1cccc(F)c1N1CCC(N2Cc3c(cnn3COCC[Si](C)(C)C)N(Cc3ncccc3C(F)(F)F)C2=O)CC1 [Example 230] | 37
CC1c2cn(C)nc2N(Cc2ccccc2C(F)(F)F)C(=O)N1C1CCN(c2c(F)cccc2C2CC2)CC1 (single isomer, unassigned) [Example 334] | 210
CC(=O)NCCn1cc2c(n1)N(Cc1ccccc1C(F)(F)F)C(=O)N(C1CCN(c3c(C)cccc3F)CC1)C2 [Example 66] | 152
COC(=O)Cn1cc2c(n1)CN(C1CCN(c3c(C)cccc3F)CC1)C(=O)N2Cc1ccccc1C(F)(F)F [Example 18] | 132
Cc1cccc(F)c1N1CCC(N2C(=O)N(Cc3ccccc3C(F)(F)F)c3nn(CC(C)(F)F)cc3C2C)CC1 (single isomer, unassigned) [Example 306] | 285
Cc1cccc(F)c1N1CCC(N2Cc3cn(CC(C)CN)nc3N(Cc3ccccc3C(F)(F)F)C2=O)CC1 (stereo not shown) [Example 45] | 203
COc1nccc(C)c1N1CCC(N2Cc3nn(C)cc3N(Cc3ccccc3C(F)(F)F)C2=O)CC1 [Example 224] | 76
CC1c2cn(C)nc2N(Cc2ccccc2C2CC2)C(=O)N1C1CCN(c2c(F)cccc2Br)CC1 (single isomer, unassigned) [Example 385] | 491
Cc1cccc(F)c1N1CCC(N2C(=O)N(Cc3ccccc3C(F)(F)F)c3cn(CC(C)(F)F)nc3C2C)CC1 (single isomer, unassigned) [Example 254] | 192
CCc1cccc(F)c1N1CCC(N2Cc3cn(C)nc3N(Cc3ccccc3C(F)(F)F)C2=O)CC1 [Example 299] | 402
CC1c2c[nH]nc2N(Cc2ccccc2C2CC2)C(=O)N1C1CCN(c2c(F)cccc2Cl)CC1 (single isomer, unassigned) [Example 373] | 1010
Cc1cccc(F)c1N1CCC(N2Cc3cn(C(C)C(N)=O)nc3N(Cc3ccccc3C(F)(F)F)C2=O)CC1 (stereo not shown) [Example 75] | 171
COC(=O)C(Cn1cc2c(n1)N(Cc1ccccc1C(F)(F)F)C(=O)N(C1CCN(c3c(C)cccc3F)CC1)C2)N(C)C (stereo not shown) [Example 53] | 46
Cc1cccc(F)c1N1CCC(N2Cc3nn(C)nc3N(Cc3ncccc3C(F)(F)F)C2=O)CC1 [Example 128] | 15
Cc1cccc(F)c1N1CCC(N2Cc3cn(CCN4CCOCC4)nc3N(Cc3ccccc3C(F)(F)F)C2=O)CC1 [Example 64] | 21
CC(C)=Cn1cc2c(n1)N(Cc1ccccc1C(F)(F)F)C(=O)N(C1CCN(c3c(C)cccc3F)CC1)C2 [Example 153] | 40
Cc1cccc(F)c1N1CCC(C)(N2Cc3cn(C)nc3N(Cc3ccccc3C(F)(F)F)C2=O)C1 (single isomer, unassigned) [Example 235] | 169
Cc1cccc(F)c1N1CCC(N2Cc3cn(C4CC4)nc3N(Cc3c(Br)cccc3C(F)(F)F)C2=O)CC1 [Example 213] | 53
COc1nccc(C)c1N1CCC(N2C(=O)N(Cc3ccccc3C3CC3)c3nn(C)cc3C2C)CC1 (single isomer, unassigned) [Example 369] | 256
Cc1cccc(F)c1N1CCC(N2Cc3cn(C4CCN(C(=O)OC(C)(C)C)C4)nc3N(Cc3ccccc3C(F)(F)F)C2=O)CC1 (stereo not shown) [Example 93] | 17

Stronger by IC50, values ahead:

IC50 [nM] | SMILES
14 | Cc1cccc(F)c1N1CCC(N2Cc3cn(C(C)(C)CO)nc3N(Cc3ccccc3C(F)(F)F)C2=O)CC1 [Example 32]
13 | COC(=O)C(C)Cn1cc2c(n1)N(Cc1ccccc1C(F)(F)F)C(=O)N(C1CCN(c3c(C)cccc3F)CC1)C2 (stereo not shown) [Example 31]
13 | CC1c2cn(C3CC3)nc2N(Cc2ccccc2C(F)(F)F)C(=O)N1C1CCN(c2c(F)cccc2C(F)F)CC1 (single isomer, unassigned) [Example 311]
12 | Cc1cccc(F)c1N1CCC(N2Cc3cn(C(C)(C)C#N)nc3N(Cc3ccccc3C(F)(F)F)C2=O)CC1 [Example 87]
12 | Cc1cccc(F)c1N1CCC(N2C(=O)N(Cc3ccccc3C3CC3)c3nn(C4CC4)cc3C2C)CC1 (single isomer, unassigned) [Example 339]
11 | Cc1cccc(F)c1N1CCC(N2C(=O)N(Cc3ccccc3C3CC3)c3nn(C)cc3C2C)CC1 (single isomer, unassigned) [Example 317]
11 | COc1nccc(C)c1N1CCC(N2Cc3cn(C)nc3N(Cc3ncccc3C(F)(F)F)C2=O)CC1 [Example 138]
11 | Cc1cccc(F)c1N1CCC(N2C(=O)N(Cc3ccccc3C(F)(F)F)c3nn(C4CC4)cc3C2C)CC1 (single isomer, unassigned) [Example 309]
11 | CC1c2c[nH]nc2N(Cc2ccccc2C(F)(F)F)C(=O)N1C1CCN(c2c(F)cccc2C(F)F)CC1 (single isomer, unassigned) [Example 348]
10 | Cc1cccc(F)c1N1CCC(N2Cc3cn(CC4CC4(F)F)nc3N(Cc3ccccc3C(F)(F)F)C2=O)CC1 (single isomer, unassigned) [Example 189]
10 | COCn1cc2c(n1)N(Cc1ccccc1C(F)(F)F)C(=O)N(C1CCN(c3c(C)ccnc3OC)CC1)C2 [Example 227]
10 | Cn1cc2c(n1)N(Cc1ccccc1C(F)(F)F)C(=O)N(C1CCN(c3c(F)cccc3C3CC3)CC1)C2 [Example 303]
9 | Cn1cc2c(n1)N(Cc1ccccc1C1CC1)C(=O)N(C1CCN(c3c(F)cccc3Cl)CC1)C2 [Example 284]
6 | COc1nccc(Cl)c1N1CCC(N2C(=O)N(Cc3ccccc3C3CC3)c3nn(C)cc3C2C)CC1 (single isomer, unassigned) [Example 378]
6 | COc1nccc(C)c1N1CCC(N2Cc3cn(CC4(F)CC4)nc3N(Cc3ccccc3C(F)(F)F)C2=O)CC1 [Example 201]
4 | Cc1cccc(F)c1N1CCC(N2Cc3nn(C(C)C)cc3N(Cc3ccccc3C(F)(F)F)C2=O)CC1 [Example 191]
3 | CC1c2cn(C3CC3)nc2N(Cc2ccccc2C(F)(F)F)C(=O)N1C1CCN(c2c(F)cccc2Br)CC1 (single isomer, unassigned) [Example 360]
3 | CC1c2cn(C)nc2N(Cc2ccccc2C2CC2)C(=O)N1C1CCN(c2c(F)cccc2Cl)CC1 (single isomer, unassigned) [Example 322]
